Source: ChEMBL document CHEMBL2375321, “Discovery of 3,3'-diindolylmethanes as potent antileishmanial agents” (Eur J Med Chem, 2013)
Values after ≈ are worked out from the molar mass of the structure shown. Active and inactive are the calls of the source. Unless noted, the rule behind the calls is not given here.

Columns and labels:
[1] = tested on: Mycobacterium intracellulare; experiment: Antibacterial activity against Mycobacterium intracellulare ATCC 23068 by alamar blue assay; assay type: functional, organism-based
[2] = tested on: Staphylococcus aureus; experiment: Antibacterial activity against methicillin-resistant Staphylococcus aureus ATCC 33591 by CLSI method; assay type: functional, organism-based
[3] = tested on: Staphylococcus aureus; experiment: Antibacterial activity against Staphylococcus aureus ATCC 29213 by CLSI method; assay type: functional, organism-based
[4] = tested on: Vero; experiment: Cytotoxicity against african green monkey Vero cells up to 4.6 ug/ml after 48 hrs by neutral red assay; assay type: cell-based; settings: chlorocebus sabaeus
[5] = tested on: Leishmania donovani; experiment: Antileishmanial activity against axenic amastigote of Leishmania donovani after 72 hrs by alamar blue assay; assay type: functional, organism-based
[6] = tested on: Leishmania donovani; experiment: Antileishmanial activity against promastigote of Leishmania donovani after 72 hrs by alamar blue assay; assay type: functional, organism-based
[7] = tested on: Cryptococcus neoformans; experiment: Antifungal activity against Cryptococcus neoformans ATCC 90113 by CLSI method; assay type: functional, organism-based
[8] = tested on: Candida albicans; experiment: Antifungal activity against Candida albicans ATCC 90028 by CLSI method; assay type: functional, organism-based
[9] = tested on: Aspergillus fumigatus; experiment: Antifungal activity against Aspergillus fumigatus ATCC 204305 by CLSI method; assay type: functional, organism-based
[10] = Staphylococcus aureus, ATCC 33591, read-out: IC50
[11] = Leishmania donovani, 72 h, read-out: IC50
[12] = Mycobacterium intracellulare, ATCC 23068
[13] = Mycobacterium intracellulare, ATCC 23068, read-out: IC50

Compound	Activity [4]	IC90 ([5]; Leishmania donovani, 72 h)	IC50 [5, 11]	IC90 ([6]; Leishmania donovani, 72 h)	IC50 [6, 11]	IC50 [5]	IC90 [5]	further results
O=[N+]([O-])c1ccc(C(c2c[nH]c3ccc(I)cc23)c2c[nH]c3ccc(I)cc23)o1	Non-toxic	28.9 µM	25.3 µM	6.22 µM	3.02 µM			IC50 [1]: Not Active; MBC [1]: inactive; MIC [1]: inactive; MBC [2]: inactive; MIC ([2]; Staphylococcus aureus, ATCC 33591): 32.8 µM (≈ 20 µg/mL); IC50 [2, 10]: 11.3 µM; IC50 [3]: 7.52 µM; MBC [3]: 16.4 µM (≈ 9.99 µg/mL); MIC [3]: 16.4 µM (≈ 9.99 µg/mL)
Brc1ccc(C(c2c[nH]c3ccc(I)cc23)c2c[nH]c3ccc(I)cc23)cc1	Non-toxic	46.6 µM	13.1 µM	8.47 µM	4.49 µM			IC50 [7]: 5.58 µM; MFC [7]: 30.7 µM (≈ 20 µg/mL); MIC [7]: 30.7 µM (≈ 20 µg/mL); Activity [8]: inactive; Activity [9]: inactive
C[C@@H]1[C@H](O)[C@@H](C)/C=C/C=C/C=C/C=C/C=C/C=C/C=C/[C@H](O[C@@H]2O[C@H](C)[C@@H](O)[C@H](N)[C@@H]2O)C[C@@H]2O[C@](O)(C[C@@H](O)C[C@@H](O)[C@H](O)CC[C@@H](O)C[C@@H](O)CC(=O)O[C@H]1C)C[C@H](O)[C@H]2C(=O)O [AMPHOTERICIN B]		[…]		0.35 µM				IC50 [7]: 0.85 µM; MFC [7]: 1.35 µM (≈ 1.25 µg/mL); MIC [7]: 1.35 µM (≈ 1.25 µg/mL); Activity [8]: inactive; Activity [9]: inactive
N=C(N)c1ccc(OCCCCCOc2ccc(C(=N)N)cc2)cc1 [PENTAMIDINE]		14.3 µM		6.21 µM	3.29 µM			
COc1ccc2[nH]cc(C(c3ccc(Br)cc3)c3c[nH]c4ccc(OC)cc34)c2c1	Non-toxic			58.5 µM	32.7 µM	Not Active	inactive	
Ic1ccc2[nH]cc(C(c3c4ccccc4cc4ccccc34)c3c[nH]c4ccc(I)cc34)c2c1	Non-toxic					Not Active	inactive	IC50 [6]: Not Active; IC90 [6]: inactive
COc1ccc2[nH]cc(C(c3c(Cl)cccc3Cl)c3c[nH]c4ccc(OC)cc34)c2c1	Non-toxic					Not Active	inactive	IC50 [1]: Not Active; MBC [1]: inactive; MIC [1]: inactive; MBC [2]: inactive; MIC [2]: inactive; IC50 [2, 10]: 17.2 µM; IC50 [3]: 7.51 µM; MBC [3]: inactive; MIC [3]: inactive; IC50 [6]: Not Active; IC90 [6]: inactive
COc1ccc2[nH]cc(C(c3cccs3)c3c[nH]c4ccc(OC)cc34)c2c1	Non-toxic	84.8 µM	59 µM	65.8 µM	38.1 µM			
c1ccc2c(C(c3c[nH]c4ccccc34)c3c[nH]c4ccccc34)c3ccccc3cc2c1	Non-toxic		53.4 µM	91.9 µM	82 µM		inactive	
COc1ccc2[nH]cc(C(c3ccc([N+](=O)[O-])cc3)c3c[nH]c4ccc(OC)cc34)c2c1	Non-toxic	64.2 µM	14.7 µM	18.8 µM	12.1 µM			
COc1cc(C(c2c[nH]c3ccccc23)c2c[nH]c3ccccc23)ccc1O	Non-toxic		75 µM	98.9 µM	86 µM		inactive	
Ic1ccc2[nH]cc(C(c3cccc4ccccc34)c3c[nH]c4ccc(I)cc34)c2c1	Non-toxic					Not Active	inactive	IC50 [6]: Not Active; IC90 [6]: inactive
COc1ccc(C(c2c[nH]c3ccccc23)c2c[nH]c3ccccc23)cc1Br	Non-toxic				82.9 µM	Not Active	inactive	IC50 [1]: Not Active; MBC [1]: inactive; MIC [1]: inactive; MBC [2]: inactive; MIC [2]: inactive; IC50 [2, 10]: 31.5 µM; IC50 [3]: 7.84 µM; MBC [3]: inactive; MIC [3]: inactive; IC90 [6]: inactive
COc1ccc2[nH]cc(C(c3ccc([N+](=O)[O-])o3)c3c[nH]c4ccc(OC)cc34)c2c1	Non-toxic			60 µM	37.3 µM	Not Active	inactive	
COc1ccc2[nH]cc(C(c3ccc(O)c(OC)c3)c3c[nH]c4ccc(OC)cc34)c2c1	Non-toxic					Not Active	inactive	IC50 [6]: Not Active; IC90 [6]: inactive
O=[N+]([O-])c1ccc(C(c2c[nH]c3ccc(I)cc23)c2c[nH]c3ccc(I)cc23)cc1	Non-toxic	38.4 µM	8.37 µM	10.2 µM	7.88 µM			
COc1ccc2[nH]cc(C(c3cccc4ccccc34)c3c[nH]c4ccc(OC)cc34)c2c1	Non-toxic		33.2 µM	82.9 µM	66.5 µM		inactive	IC50 [1]: Not Active; MBC [1]: inactive; MIC [1]: inactive; IC50 [2]: Not Active; MBC [2]: inactive; MIC [2]: inactive; IC50 [3]: 39.7 µM; MBC [3]: inactive; MIC [3]: inactive
Fc1cc(F)cc(C(c2c[nH]c3ccc(I)cc23)c2c[nH]c3ccc(I)cc23)c1	Non-toxic	44.5 µM	23.2 µM	41.2 µM	24.2 µM			
O=[N+]([O-])c1ccc(C(c2c[nH]c3ccccc23)c2c[nH]c3ccccc23)cc1	Non-toxic	72.3 µM	40.8 µM	54.3 µM	15.9 µM			
COc1ccc2[nH]cc(C(c3ccc(F)c(Br)c3)c3c[nH]c4ccc(OC)cc34)c2c1	Non-toxic	66.8 µM	47.6 µM	46.6 µM	15.8 µM			MBC [1]: inactive; MIC [1, 12]: 41.8 µM (≈ 20 µg/mL); IC50 [1, 13]: 39.6 µM; MBC [2]: inactive; MIC [2]: inactive; IC50 [2, 10]: 4.67 µM; IC50 [3]: 3.45 µM; MBC [3]: inactive; MIC [3]: 10.5 µM (≈ 5.03 µg/mL)
COc1ccc2[nH]cc(C(c3c4ccccc4cc4ccccc34)c3c[nH]c4ccc(OC)cc34)c2c1	Non-toxic		39.8 µM	64.9 µM	34.6 µM		inactive	
COc1ccc2[nH]cc(C(c3ccc(O)cc3)c3c[nH]c4ccc(OC)cc34)c2c1	Non-toxic	76.3 µM	42.9 µM	91 µM	81.1 µM			
Clc1cccc(Cl)c1C(c1c[nH]c2ccc(I)cc12)c1c[nH]c2ccc(I)cc12	Non-toxic					Not Active	inactive	IC50 [6]: Not Active; IC90 [6]: inactive
O=C(O)c1cn(C2CC2)c2cc(N3CCNCC3)c(F)cc2c1=O [CIPROFLOXACIN]								MBC [1, 12]: 3.02 µM (≈ 1 µg/mL); IC50 [1, 13]: 1 µM
